Data reported in US6653307B2, “1-aryl-4-oxo-1,4-dihydro-3-quinolinecarboxamides as antiviral agents” (Pharmacia & Upjohn Company, priority 2000, dated 2003).

How the values were obtained:
VZV polymerase = VZV polymerase (Varicella-zoster virus, UniProt P09252); experiment: VZV polymerase assay (Table 1); assay type: biochemical
Experimental: [Worded in the source for another target; this target is reported under the same test.] (§1) The HCMV polymerase assay is performed using a scintillation proximity assay (SPA) as described in several references, such as N.D. Cook, et al., Pharmaceutical Manufacturing International, pages 49-53 (1992); K. Takeuchi, Laboratory Practice, September issue (1992); U.S. Pat. No. 4,568,649 (1986); which are incorporated by reference herein. Reactions are performed in 96-well plates. The assay is conducted in 100 μl volume with 5.4 mM HEPES (pH 7.5), 11.7 mM KCl, 4.5 mM MgCl2, 0.36 mg/ml BSA, and 90 nM ^3H-dTTP. Assays are run with and without CHAPS, (3-[(3-cholamidopropyl)-dimethylammonio]-1-propane-sulfonate) at a final concentration of 2 mM. HCMV polymerase is diluted in enzyme dilution buffer containing 50% glycerol, 250 mM NaCl, 10 mM HEPES (pH 7.5), 100 μg/ml BSA, and 0.01% sodium azide. The HCMV polymerase, which is expressed in recombinant baculovirus-infected SF-9 cells and purified according to literature procedures, is added at 10% (or 10 μl) of the final reaction volume, i.e., […]. Compounds are diluted in 50% DMSO and 10 μl are added to each well. Control wells contain an equivalent concentration of DMSO. Unless noted otherwise, reactions are initiated via the addition of 6 nM biotinylated poly(dA)-oligo(dT) template/primer to reaction mixtures containing the enzyme, substrate, and compounds of interest. Plates are incubated in a 25 C or 37 C H2O bath and terminated via the addition of 40 μl/reaction of 0.5 M EDTA (pH 8) per well. Reactions are terminated within the time-frame during which substrate incorporation is linear and varied depending upon the enzyme and conditions used, i.e., 30 min. for HCMV polymerase. Ten μl of streptavidin-SPA beads (20 mg/ml in PBS/10% glycerol) are added following termination of the reaction. Plates are incubated 10 min. at 37 C, then equilibrated to room temperature, and counted on a Packard Topcount. Linear regressions are performed and IC50's are calculated using computer software. A modified version of the above HCMV polymerase assay is performed as described above, but with the following changes: Compounds are diluted in 100% DMSO until final dilution into assay buffer. In the previous assay, compounds are diluted in 50% DMSO. 4.5 mM dithiotherotol (DTT) is added to the polymerase buffer.

HCMV polymerase = target: T1, HCMV polymerase (Human cytomegalovirus, UniProt P08546); experiment: HCMV polymerase scintillation proximity assay (SPA); assay type: biochemical; details: 3H-dTTP incorporation
T1 construct: made in house; host or cells: recombinant baculovirus-infected SF-9 cells
T1 sequence (P08546 whole entry): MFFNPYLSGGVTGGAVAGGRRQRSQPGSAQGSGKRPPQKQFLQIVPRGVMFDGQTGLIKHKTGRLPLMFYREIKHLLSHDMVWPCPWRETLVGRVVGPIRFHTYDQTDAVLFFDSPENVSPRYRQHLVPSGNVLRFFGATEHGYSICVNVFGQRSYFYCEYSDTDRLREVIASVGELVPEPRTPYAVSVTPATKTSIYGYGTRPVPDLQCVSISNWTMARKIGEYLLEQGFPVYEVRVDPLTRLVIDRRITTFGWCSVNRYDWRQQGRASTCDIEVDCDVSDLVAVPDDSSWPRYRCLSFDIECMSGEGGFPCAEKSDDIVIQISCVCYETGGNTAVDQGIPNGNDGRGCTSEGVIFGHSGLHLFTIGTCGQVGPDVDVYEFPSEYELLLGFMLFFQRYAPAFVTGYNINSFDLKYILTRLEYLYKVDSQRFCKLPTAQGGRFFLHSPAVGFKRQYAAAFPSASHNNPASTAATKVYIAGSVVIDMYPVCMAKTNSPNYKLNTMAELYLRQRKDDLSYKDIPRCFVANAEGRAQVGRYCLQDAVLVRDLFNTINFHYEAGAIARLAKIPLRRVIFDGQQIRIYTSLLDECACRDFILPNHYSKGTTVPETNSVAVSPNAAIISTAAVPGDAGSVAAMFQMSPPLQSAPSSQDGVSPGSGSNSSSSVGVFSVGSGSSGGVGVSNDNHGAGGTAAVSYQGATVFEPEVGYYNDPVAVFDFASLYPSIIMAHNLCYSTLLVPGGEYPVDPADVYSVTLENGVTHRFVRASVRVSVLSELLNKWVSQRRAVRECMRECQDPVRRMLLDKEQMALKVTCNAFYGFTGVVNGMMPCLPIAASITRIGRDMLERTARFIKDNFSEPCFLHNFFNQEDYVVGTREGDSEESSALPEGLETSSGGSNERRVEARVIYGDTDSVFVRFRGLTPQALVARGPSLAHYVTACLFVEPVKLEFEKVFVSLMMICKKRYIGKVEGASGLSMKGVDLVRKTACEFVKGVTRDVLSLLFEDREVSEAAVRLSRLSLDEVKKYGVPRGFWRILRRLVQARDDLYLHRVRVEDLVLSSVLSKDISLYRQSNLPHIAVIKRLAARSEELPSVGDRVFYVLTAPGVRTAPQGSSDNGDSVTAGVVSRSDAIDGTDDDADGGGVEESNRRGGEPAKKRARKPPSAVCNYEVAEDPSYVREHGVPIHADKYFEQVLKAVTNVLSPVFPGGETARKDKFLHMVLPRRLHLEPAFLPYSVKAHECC
Experimental: as §1

HSV polymerase = HSV polymerase (Human herpesvirus 1, UniProt P04293); experiment: HSV polymerase assay (Table 1); assay type: biochemical
Chain of HSV polymerase (P04293 whole entry): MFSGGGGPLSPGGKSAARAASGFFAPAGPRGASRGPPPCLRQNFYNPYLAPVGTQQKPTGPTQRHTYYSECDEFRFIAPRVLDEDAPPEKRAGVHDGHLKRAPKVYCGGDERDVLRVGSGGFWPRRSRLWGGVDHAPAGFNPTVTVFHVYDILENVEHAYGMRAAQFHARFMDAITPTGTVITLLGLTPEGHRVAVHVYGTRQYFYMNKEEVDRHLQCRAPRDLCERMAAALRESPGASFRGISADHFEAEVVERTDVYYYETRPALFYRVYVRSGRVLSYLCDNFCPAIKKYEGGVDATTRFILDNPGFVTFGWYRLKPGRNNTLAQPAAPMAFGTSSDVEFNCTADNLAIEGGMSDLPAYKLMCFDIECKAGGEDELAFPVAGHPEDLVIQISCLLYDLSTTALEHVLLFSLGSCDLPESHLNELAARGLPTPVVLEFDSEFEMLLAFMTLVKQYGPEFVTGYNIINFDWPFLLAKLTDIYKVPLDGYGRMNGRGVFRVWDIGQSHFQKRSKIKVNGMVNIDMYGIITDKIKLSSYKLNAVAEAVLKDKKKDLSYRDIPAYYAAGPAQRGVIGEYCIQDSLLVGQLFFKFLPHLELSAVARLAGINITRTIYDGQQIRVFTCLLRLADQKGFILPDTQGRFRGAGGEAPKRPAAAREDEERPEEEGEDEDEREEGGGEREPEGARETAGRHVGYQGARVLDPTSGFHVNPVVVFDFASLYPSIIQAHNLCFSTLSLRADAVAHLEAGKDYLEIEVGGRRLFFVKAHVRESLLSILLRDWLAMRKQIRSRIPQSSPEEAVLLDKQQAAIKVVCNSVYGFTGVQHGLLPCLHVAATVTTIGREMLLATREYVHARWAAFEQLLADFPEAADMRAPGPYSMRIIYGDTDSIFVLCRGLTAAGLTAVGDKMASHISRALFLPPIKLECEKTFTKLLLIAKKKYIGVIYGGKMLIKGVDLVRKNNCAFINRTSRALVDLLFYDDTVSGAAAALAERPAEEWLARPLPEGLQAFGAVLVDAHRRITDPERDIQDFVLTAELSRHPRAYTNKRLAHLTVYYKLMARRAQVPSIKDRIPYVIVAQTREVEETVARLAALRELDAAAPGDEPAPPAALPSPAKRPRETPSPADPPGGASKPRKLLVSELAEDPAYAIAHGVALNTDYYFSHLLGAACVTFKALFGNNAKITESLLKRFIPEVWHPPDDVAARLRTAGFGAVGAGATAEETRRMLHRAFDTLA
Experimental: [Worded in the source for another target; this target is reported under the same test.] as §1

Chain of VZV polymerase (P09252 whole entry): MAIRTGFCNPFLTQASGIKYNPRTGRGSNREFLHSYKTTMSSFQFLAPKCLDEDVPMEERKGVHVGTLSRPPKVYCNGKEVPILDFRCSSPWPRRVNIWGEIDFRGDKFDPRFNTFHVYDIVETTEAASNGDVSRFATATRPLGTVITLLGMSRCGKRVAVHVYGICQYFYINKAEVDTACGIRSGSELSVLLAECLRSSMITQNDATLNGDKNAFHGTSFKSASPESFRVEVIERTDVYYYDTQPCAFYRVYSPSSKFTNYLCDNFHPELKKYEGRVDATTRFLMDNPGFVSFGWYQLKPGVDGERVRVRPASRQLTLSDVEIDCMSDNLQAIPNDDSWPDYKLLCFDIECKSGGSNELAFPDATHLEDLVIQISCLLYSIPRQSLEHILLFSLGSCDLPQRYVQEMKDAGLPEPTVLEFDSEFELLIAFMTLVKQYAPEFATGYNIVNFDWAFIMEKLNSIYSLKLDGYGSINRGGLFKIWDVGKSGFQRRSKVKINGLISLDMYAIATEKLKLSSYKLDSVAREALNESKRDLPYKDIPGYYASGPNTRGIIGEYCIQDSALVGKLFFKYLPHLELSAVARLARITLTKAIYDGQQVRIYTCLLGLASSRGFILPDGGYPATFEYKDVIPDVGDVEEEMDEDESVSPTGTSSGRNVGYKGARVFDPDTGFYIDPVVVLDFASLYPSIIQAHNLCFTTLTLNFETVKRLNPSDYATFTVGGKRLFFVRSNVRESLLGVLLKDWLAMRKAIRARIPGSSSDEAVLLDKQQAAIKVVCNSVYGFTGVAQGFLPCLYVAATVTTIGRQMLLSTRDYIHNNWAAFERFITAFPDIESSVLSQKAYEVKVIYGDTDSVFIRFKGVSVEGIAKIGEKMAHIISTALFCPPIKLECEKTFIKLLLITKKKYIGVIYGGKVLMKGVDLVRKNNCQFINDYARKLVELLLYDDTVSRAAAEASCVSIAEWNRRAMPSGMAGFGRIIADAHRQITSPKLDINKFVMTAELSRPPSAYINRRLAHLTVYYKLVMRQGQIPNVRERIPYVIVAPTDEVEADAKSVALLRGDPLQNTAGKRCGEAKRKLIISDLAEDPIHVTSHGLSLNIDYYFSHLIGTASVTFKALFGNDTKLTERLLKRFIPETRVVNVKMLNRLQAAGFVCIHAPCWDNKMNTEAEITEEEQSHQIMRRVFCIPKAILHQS

Compound: O=C(NCc1ccc(Cl)cc1)c1cn(-c2cccc(CCO)c2)c2ccc(CN3CCOCC3)cc2c1=O [Example 14, N-(4-Chlorobenzyl)-1-(3-(2-hydroxyethyl)phenyl)-6-(4-morpholinylmethyl)-4-oxo-1,4-dihydro-3-quinolinecarboxamide]
- IC50 (VZV polymerase): 0.43 µM
- melting point: 158 to 160 °C
- IC50 (HCMV polymerase): 0.82 µM
- IC50 (HSV polymerase): 0.7 µM
